Converted amounts (≈) assume the structure as drawn.
Legend:
[1] = THESA assay, thermodynamic solubility; type: physicochemical; conditions: 22.5 °C, aqueous buffer, thermodynamic from solid, 50 mM phosphate buffer
Method: In addition, the compounds of the present invention have been tested in a THESA assay for determination of the thermodynamic solubility.
Approximately 2 mg of each compound was added in excess to a 50 mM phosphate buffer, at room temperature (22.5±1° C.). Each sample was placed in a microanalysis tube, which was sonicated for 1 h and agitated for 2 h. All suspensions were left overnight. At the next day all pHs were measured with a pH-meter and the samples filtered with a micronic filterplate (MSGVN2250) to separate the solid material from the solution. Then, all solutions were analyzed by HPLC. The calibration line was established by different concentrations of the compound in DMSO. From this regression equation the solubility of the compound was determined.

[2] = Microsome incubation, metabolic stability (mouse); type: in vitro ADME; conditions: for microsomal CLint at 10 μM: pH 7.4, liver microsomes, test compound 10 μM, 37° C., read-out: Intrinsic clearance (mouse)
[3] = Microsome incubation, metabolic stability (human); type: in vitro ADME; conditions: for microsomal CLint at 10 μM: pH 7.4, human liver microsomes 2.0 mg prot/mL, test compound 10 μM, 37° C., read-out: Intrinsic clearance (human)
Method: The compounds of formula I of the present invention are further characterized by high metabolic stability. This parameter is a prerequisite for good bioavailability, which is necessary to obtain medicaments with acceptable in-vivo activity. The metabolic stability has been tested by the following method:
Incubation mixtures consisted of liver microsomes (rat 1.0 mg prot/mL or human 2.0 mg prot/mL), test compound 10 μM, MgCl2 (3.3 mM), and an NADPH regenerating system consisting of glucose-6-phosphate dehydrogenase, NADPH and glucose-6-phosphate (equivalent to 1 mM NADPH) in a total volume of 1.0 mL of potassium phosphate buffer 100 mM pH 7.4. Reactions were initiated by addition of the NADPH regenerating system at 37° C. At the time of 1, 5, 9, 13, 17, 21, 25, and 29 min a 5 μL aliquot was directly analysed on a HPLC-MS/MS system consisting of a HP 1100 quaternary pump with degasser and a PE-Sciex API-2000 MS/MS spectrometer. The analytical column was a Waters Symmetry Shield RP8 (2.1*50 mm with a […] particle size). A polarity non linear gradient from phase A (MeOH/Ac. Form. 1% 20/80) to phase B (MeOH) was applied for a total run time of 2 minutes at a flow rate of 0.25 mL/min. The PE-Sciex API-2000 MS/MS spectrometer was used for detection of the parent compound. In vivo metabolic clearance was predicted according to published procedures [Houston, Biochem. Pharmacol. 47:1469-1479 (1994)]. In brief, the intrinsic clearance (Clearance, see table below) is calculated from the measured in vitro half-life taking into account incubation volume and microsomal protein used for the in vitro incubation. The intrinsic clearance is expressed in terms of μl/min/mg microsomal protein. For in vivo extrapolations, the hepatic extraction ratio (E) was calculated. Here it is reported the % MAB value which is equal to 1-E. The MAB (maximal achievable bioavailability) values express the maximal bioavailability that one can achieve with the given clearance values.

[4] = comparison table, room temperature
[5] = maximal achievable bioavailability = 1-E, extrapolated from intrinsic clearance

Row | solubility thermodynamic [1, 4] [µg/mL] | MAB (mouse) ([2]; comparison table) [%] | MAB (human) ([3]; comparison table) [%] | MAB (mouse) [2, 5] [%] | microsomal CLint at 10 μM [2] [µL/min/mg] | MAB (human) [3, 5] [%] | microsomal CLint at 10 μM [3] [µL/min/mg] | solubility thermodynamic ([1]; room temperature (22.5±1° C.)) [µg/mL] | Compound
1 | < 1 | 21.8 | 43.1 |  |  |  |  |  | CC(C)(C(=O)NCC(F)(F)C(F)(F)F)C(=O)N[C@H]1CN(CC(F)(F)F)c2ccccc2NC1=O [reference compound]
2 |  |  |  | 49.3 | 32.5 | 74.9 | 5.2 |  | CC(O)(C(=O)NCC(F)(F)C(F)(F)F)C(=O)N[C@H]1CN(CCO)c2ccccc2NC1=O (mixture of isomers) [Example 7, (RS)-2-Hydroxy-N-[(S)-1-(2-hydroxy-ethyl)-4-oxo-2,3,4,5-tetrahydro-1H-benzo[b][1,4]diazepin-3-yl]-2-methyl-N′-(2,2,3,3,3-pentafluoro-propyl)-malonamide]
3 |  |  |  | 32.7 | 65.2 | 88.2 | 2.1 | 1780 (≈ 3240 µM) | CC(O)(C(=O)NCC(F)(F)C(F)(F)F)C(=O)N[C@H]1CN(CC(F)(F)F)c2ccccc2N(CCO)C1=O (single isomer, unassigned) [Example 9, (R or S)-2-Hydroxy-N-[(S)-1-(2-hydroxy-ethyl)-2-oxo-5-(2,2,2-trifluoro-ethyl)-2,3,4,5-tetrahydro-1H-benzo[b][1,4]diazepin-3-yl]-2-methyl-N′-(2,2,3,3,3-pentafluoro-propyl)-malonamide]
4 |  |  |  | 85.5 | 5.4 | 100.0 |  | 74 (≈ 134 µM) | CC(O)(C(=O)NCC(F)(F)C(F)(F)F)C(=O)N[C@H]1CN(C(=O)OCC(F)(F)F)c2ccccc2NC1=O (single isomer, unassigned) [Example 10, (S)-3-[(R or S)-2-Hydroxy-2-(2,2,3,3,3-pentafluoro-propylcarbamoyl)-propionylamino]-4-oxo-2,3,4,5-tetrahydro-benzo[b][1,4]diazepine-1-carboxylic acid 2,2,2-trifluoro-ethyl ester and (S)-3-[(S or R)-2-Hydroxy-2-(2,2,3,3,3-pentafluoro-propylcarbamoyl)-propionylamino]-4-oxo-2,3,4,5-tetrahydro-benzo[b][1,4]diazepine-1-carboxylic acid 2,2,2-trifluoro-ethyl ester]
5 |  |  |  | 25.0 | 94.9 | 49.4 | 15.9 | 124 (≈ 232 µM) | CC(O)(C(=O)NCC(F)(F)C(F)(F)F)C(=O)N[C@H]1CN(CCCC(F)(F)F)c2ccccc2NC1=O (single isomer, unassigned) [Example 6, (R or S)-2-Hydroxy-2-methyl-N-[(S)-4-oxo-1-(4,4,4-trifluoro-butyl)-2,3,4,5-tetrahydro-1H-benzo[b][1,4]diazepin-3-yl]-N′-(2,2,3,3,3-pentafluoro-propyl)-malonamide and (S or R)-2-Hydroxy-2-methyl-N-[(S)-4-oxo-1-(4,4,4-trifluoro-butyl)-2,3,4,5-tetrahydro-1H-benzo[b][1,4]diazepin-3-yl]-N′-(2,2,3,3,3-pentafluoro-propyl)-malonamide]
6 | 16 (≈ 25.4 µM) | 28.4 | 19.6 |  |  |  |  |  | CC(C)(C(=O)NCC(F)(F)C(F)(F)F)C(=O)N[C@H]1CN(C(=O)OCC(F)(F)F)c2ccccc2N(CC(F)(F)F)C1=O [reference compound]
7 | 37 (≈ 58.5 µM) | 74.9 | 100.0 | 74.9 | 10.6 | 100.0 |  |  | CC(O)(C(=O)NCC(F)(F)C(F)(F)F)C(=O)N[C@H]1CN(C(=O)OCC(F)(F)F)c2ccccc2N(CC(F)(F)F)C1=O (single isomer, unassigned) [Example 11]
8 |  |  |  | 37.5 | 52.7 | 100.0 |  | 2670 (≈ 4850 µM) | CC(O)(C(=O)NCC(F)(F)C(F)(F)F)C(=O)N[C@H]1CN(CCO)c2ccccc2N(CC(F)(F)F)C1=O (single isomer, unassigned) [Example 8, (R or S)-2-Hydroxy-N-[(S)-5-(2-hydroxy-ethyl)-2-oxo-1-(2,2,2-trifluoro-ethyl)-2,3,4,5-tetrahydro-1H-benzo[b][1,4]diazepin-3-yl]-2-methyl-N′-(2,2,3,3,3-pentafluoro-propyl)-malonamide]
9 |  |  |  | 20.1 | 126 | 56.7 | 11.9 |  | CC(O)(C(=O)NCC(F)(F)C(F)(F)F)C(=O)N[C@H]1CN(CC(F)(F)F)c2ccc(F)cc2NC1=O (single isomer, unassigned) [Example 3, N-[(S)-7-Fluoro-4-oxo-1-(2,2,2-trifluoro-ethyl)-2,3,4,5-tetrahydro-1H-benzo[b][1,4]diazepin-3-yl]-(R or S)-2-hydroxy-2-methyl-N′-(2,2,3,3,3-pentafluoro-propyl)-malonamide and N-[(S)-7-Fluoro-4-oxo-1-(2,2,2-trifluoro-ethyl)-2,3,4,5-tetrahydro-1H-benzo[b][1,4]diazepin-3-yl]-(S or R)-2-hydroxy-2-methyl-N′-(2,2,3,3,3-pentafluoro-propyl)-malonamide]
10 |  |  |  | 83.0 | 6.5 | 54.3 | 13.1 |  | CC(O)(C(=O)NCC(F)(F)C(F)(F)F)C(=O)N[C@H]1CN(C(=O)OCC(F)(F)F)c2cc(F)c(F)cc2N(CC(F)(F)F)C1=O (single isomer, unassigned) [Example 2]
11 |  | 47.6 | 26.8 |  |  |  |  |  | CC(C(=O)NCC(F)(F)C(F)(F)F)C(=O)N[C@H]1CN(C(=O)OCC2CC2)c2ccccc2N(CC(F)(F)F)C1=O (some centres unmarked) [reference compound]
12 |  | 19.6 | 55.5 | 19.6 | 130 | 55.5 | 12.5 |  | CC(O)(C(=O)NCC(F)(F)C(F)(F)F)C(=O)N[C@H]1CN(CC(F)(F)F)c2ccccc2NC1=O (single isomer, unassigned) [Example 4, (R or S)-2-Hydroxy-2-methyl-N-[(S)-4-oxo-1-(2,2,2-trifluoro-ethyl)-2,3,4,5-tetrahydro-1H-benzo[b][1,4]diazepin-3-yl]-N′-(2,2,3,3,3-pentafluoro-propyl)-malonamide and (S or R)-2-Hydroxy-2-methyl-N-[(S)-4-oxo-1-(2,2,2-trifluoro-ethyl)-2,3,4,5-tetrahydro-1H-benzo[b][1,4]diazepin-3-yl]-N′-(2,2,3,3,3-pentafluoro-propyl)-malonamide]
13 |  |  |  | 100 |  | 87.4 | 2.2 |  | CC(O)(C(=O)NCC(F)(F)C(F)(F)F)C(=O)N[C@H]1CN(C(=O)OCCCC(F)(F)F)c2ccccc2N(CCCC(F)(F)F)C1=O (single isomer, unassigned) [Example 13]

Source: patent US7414049B2, “4-oxo-2,3,4,5-tetrahydro-benzo[b][1,4]diazepine derivatives” (Hoffmann-La Roche Inc., priority 2006, dated 2008)
